The first series has as its system Phytophthora infestans lycopersici.
Test: not given
The format is in vivo. To be noted: METHOD 2 (unbanded).
Regarding `Cc1nsc(NC(=O)Cc2ccc3oc(CSc4ccccc4)nc3c2)c1Cl` [173(A3)], the “PHYTIN 1 d Prot/Foir PRCO” value was found to be 77.
On the same count and under the same terms, next, `Cc1nsc(NC(=O)Cc2ccc3oc(C(c4ccccc4)c4ccccc4)nc3c2)c1Cl` [246(A3)]: 79.
The same measure, in the same setting: under `Cc1nsc(NC(=O)Cc2ccc3oc(-c4ccccc4Cl)nc3c2)c1Cl` [253(A3)] stands 98.
Still for that read-out and setting: under `COc1ccccc1-c1nc2cc(CC(=O)Nc3snc(C)c3Cl)ccc2o1` [305(A3)] stands 74; under `Cc1nsc(NC(=O)Cc2ccc3oc(-c4cccs4)nc3c2)c1Cl` [330(A3)], 99.

The next series deals with Meloidogyne incognita. In words: Nematode test, J2 infective juveniles of Meloidogyne incognita, mortality. The note with it: 12.5 ppm; J2 infective juveniles suspended in solution; mortality after three days.
Regarding `CCC(Cl)c1nc2cc(CC(=O)Nc3snc(C)c3Cl)ccc2o1` (racemic) [95(A3)], the “MELGIN = Meloidogyne incognita, grading of mortality (score)” value was 0 (0 indicates less than 40% mortality).
Same read-out and setting: under `Cc1nsc(NC(=O)Cc2ccc3oc(C(C)C#N)nc3c2)c1Cl` (racemic) [115(A3)] stands 0 (0 indicates less than 40% mortality); under `Cc1nsc(NC(=O)Cc2ccc3oc(CSc4ccccc4)nc3c2)c1Cl` [173(A3)], 0 (0 indicates less than 40% mortality).
Still for that read-out and setting: next, `Cc1nsc(NC(=O)Cc2ccc3oc(Cc4c(F)c(F)c(F)c(F)c4F)nc3c2)c1Cl` [239(A3)]: 0 (0 indicates less than 40% mortality); `Cc1nsc(NC(=O)Cc2ccc3oc(-c4c(Cl)cc(C(F)(F)F)cc4Cl)nc3c2)c1Cl` [244(A3)]: 0 (0 indicates less than 40% mortality); `Cc1nsc(NC(=O)Cc2ccc3oc(C(c4ccccc4)c4ccccc4)nc3c2)c1Cl` [246(A3)]: 0 (0 indicates less than 40% mortality).
The same measure, in the same setting: under `Cc1nsc(NC(=O)Cc2ccc3oc(-c4ccccc4Cl)nc3c2)c1Cl` [253(A3)] stands 0 (0 indicates less than 40% mortality).
For `COc1ccccc1-c1nc2cc(CC(=O)Nc3snc(C)c3Cl)ccc2o1` [305(A3)], the “MELGIN = Meloidogyne incognita, grading of mortality (score)” value is 0 (0 indicates less than 40% mortality).
The same measure, in the same setting: under `Cc1nsc(NC(=O)Cc2ccc3oc(-c4cccs4)nc3c2)c1Cl` [330(A3)] stands 0 (0 indicates less than 40% mortality).

Another series relates to Puccinia recondita. In words: Fungicidal test, Puccinia recondita (PUCCRT) on wheat, PRCO. The format is in vivo. To be noted: METHOD 2 (unbanded).
Take `CCC(Cl)c1nc2cc(CC(=O)Nc3snc(C)c3Cl)ccc2o1` (racemic) [95(A3)]: the “PUCCRT 1 d Prot/Foir PRCO” value was 100.
For `Cc1nsc(NC(=O)Cc2ccc3oc(C(C)C#N)nc3c2)c1Cl` (racemic) [115(A3)], the “PUCCRT 1 d Prot/Foir PRCO” value was 45.
With `Cc1nsc(NC(=O)Cc2ccc3oc(CSc4ccccc4)nc3c2)c1Cl` [173(A3)], the “PUCCRT 1 d Prot/Foir PRCO” value is given as 63.
Turning to `Cc1nsc(NC(=O)Cc2ccc3oc(Cc4c(F)c(F)c(F)c(F)c4F)nc3c2)c1Cl` [239(A3)], the “PUCCRT 1 d Prot/Foir PRCO” value is 3.
For `Cc1nsc(NC(=O)Cc2ccc3oc(-c4c(Cl)cc(C(F)(F)F)cc4Cl)nc3c2)c1Cl` [244(A3)], the “PUCCRT 1 d Prot/Foir PRCO” value came out at 84.
With `Cc1nsc(NC(=O)Cc2ccc3oc(C(c4ccccc4)c4ccccc4)nc3c2)c1Cl` [246(A3)], the “PUCCRT 1 d Prot/Foir PRCO” value is given as 13.
The same measure, in the same setting: next, `Cc1nsc(NC(=O)Cc2ccc3oc(-c4ccccc4Cl)nc3c2)c1Cl` [253(A3)]: 99; `COc1ccccc1-c1nc2cc(CC(=O)Nc3snc(C)c3Cl)ccc2o1` [305(A3)]: 81.
Turning to `Cc1nsc(NC(=O)Cc2ccc3oc(-c4cccs4)nc3c2)c1Cl` [330(A3)], the “PUCCRT 1 d Prot/Foir PRCO” value was 99.

For the next series, the system named is Pyricularia oryzae.
Test: not given
In kind it is in vivo. To be noted: METHOD 2 (unbanded).
As to `CCC(Cl)c1nc2cc(CC(=O)Nc3snc(C)c3Cl)ccc2o1` (racemic) [95(A3)], the “PYRIOR 1 d Prot/Foir PRCO” value came to 96.
As for `Cc1nsc(NC(=O)Cc2ccc3oc(C(C)C#N)nc3c2)c1Cl` (racemic) [115(A3)], the “PYRIOR 1 d Prot/Foir PRCO” value stood at 5.
For the molecule `Cc1nsc(NC(=O)Cc2ccc3oc(C4CCCCC4)nc3c2)c1Cl` [35((A3)], the “PYRIOR 1 d Prot/Foir PRCO” value was found to be 98.
The same measure, in the same setting: next, `Cc1nsc(NC(=O)Cc2ccc3oc(Cc4c(F)c(F)c(F)c(F)c4F)nc3c2)c1Cl` [239(A3)]: 11; `Cc1nsc(NC(=O)Cc2ccc3oc(-c4c(Cl)cc(C(F)(F)F)cc4Cl)nc3c2)c1Cl` [244(A3)]: −2; `Cc1nsc(NC(=O)Cc2ccc3oc(-c4ccncc4)nc3c2)c1Cl` [339((A3)]: 33.

The next series relates to Uncinula necator. In words: Fungicidal test, Uncinula necator (UNCINE) on vines, PRCO. The note with it: METHOD 2 (unbanded). The format is in vivo.
With `CCC(Cl)c1nc2cc(CC(=O)Nc3snc(C)c3Cl)ccc2o1` (racemic) [95(A3)], the “UNCINE 1 d Prot/Foir PRCO” value is reported as 100.
Take `Cc1nsc(NC(=O)Cc2ccc3oc(C(C)C#N)nc3c2)c1Cl` (racemic) [115(A3)]: the “UNCINE 1 d Prot/Foir PRCO” value is on record as 2.
As for `Cc1nsc(NC(=O)Cc2ccc3oc(C4CCCCC4)nc3c2)c1Cl` [35((A3)], the “UNCINE 1 d Prot/Foir PRCO” value stood at 100.
On the same count and under the same terms, next, `Cc1nsc(NC(=O)Cc2ccc3oc(CSc4ccccc4)nc3c2)c1Cl` [173(A3)]: −12; `Cc1nsc(NC(=O)Cc2ccc3oc(Cc4c(F)c(F)c(F)c(F)c4F)nc3c2)c1Cl` [239(A3)]: 51.
Turning to `Cc1nsc(NC(=O)Cc2ccc3oc(C(c4ccccc4)c4ccccc4)nc3c2)c1Cl` [246(A3)], the “UNCINE 1 d Prot/Foir PRCO” value is −7.
The same measure, in the same setting: next, `Cc1nsc(NC(=O)Cc2ccc3oc(-c4ccccc4Cl)nc3c2)c1Cl` [253(A3)]: 100; `COc1ccccc1-c1nc2cc(CC(=O)Nc3snc(C)c3Cl)ccc2o1` [305(A3)]: 19.
Still for that read-out and setting: under `Cc1nsc(NC(=O)Cc2ccc3oc(-c4cccs4)nc3c2)c1Cl` [330(A3)] stands 14; under `Cc1nsc(NC(=O)Cc2ccc3oc(-c4ccncc4)nc3c2)c1Cl` [339((A3)], 26.

The next series relates to Venturia inaequalis. In words: Fungicidal test, Venturia inaequalis (VENTIN) on apples, PRCO. In kind it is in vivo. The note with it: METHOD 2 (unbanded).
Take `CCC(Cl)c1nc2cc(CC(=O)Nc3snc(C)c3Cl)ccc2o1` (racemic) [95(A3)]: the “VENTIN 1 d Prot/Foir PRCO” value is on record as 98.
Regarding `Cc1nsc(NC(=O)Cc2ccc3oc(C(C)C#N)nc3c2)c1Cl` (racemic) [115(A3)], the “VENTIN 1 d Prot/Foir PRCO” value came to 15.
Same read-out and setting: next, `Cc1nsc(NC(=O)Cc2ccc3oc(C4CCCCC4)nc3c2)c1Cl` [35((A3)]: 70; `Cc1nsc(NC(=O)Cc2ccc3oc(CSc4ccccc4)nc3c2)c1Cl` [173(A3)]: 50.
Take `Cc1nsc(NC(=O)Cc2ccc3oc(Cc4c(F)c(F)c(F)c(F)c4F)nc3c2)c1Cl` [239(A3)]: the “VENTIN 1 d Prot/Foir PRCO” value stood at 5.
In the case of `Cc1nsc(NC(=O)Cc2ccc3oc(-c4c(Cl)cc(C(F)(F)F)cc4Cl)nc3c2)c1Cl` [244(A3)], the “VENTIN 1 d Prot/Foir PRCO” value worked out at 45.
Take `Cc1nsc(NC(=O)Cc2ccc3oc(C(c4ccccc4)c4ccccc4)nc3c2)c1Cl` [246(A3)]: the “VENTIN 1 d Prot/Foir PRCO” value was 13.
`Cc1nsc(NC(=O)Cc2ccc3oc(-c4ccccc4Cl)nc3c2)c1Cl` [253(A3)]: the “VENTIN 1 d Prot/Foir PRCO” value is on record as 34.
Same read-out and setting: under `COc1ccccc1-c1nc2cc(CC(=O)Nc3snc(C)c3Cl)ccc2o1` [305(A3)] stands −6; under `Cc1nsc(NC(=O)Cc2ccc3oc(-c4cccs4)nc3c2)c1Cl` [330(A3)], 6; under `Cc1nsc(NC(=O)Cc2ccc3oc(-c4ccncc4)nc3c2)c1Cl` [339((A3)], 8.

A further series has as its system Erysiphe graminis f.sp. tritici. In words: Fungicidal test, Erysiphe graminis f.sp. tritici (ERYSGT) on wheat, PRCO. The note with it: 6 hr Prot/Foir; METHOD 2 (unbanded). In kind it is in vivo.
With `Cc1nsc(NC(=O)Cc2ccc3oc(-c4ccccc4Cl)nc3c2)c1Cl` [253(A3)], the “ERYSGT 6 hr Prot/Foir PRCO” value stood at 94.
On the same count and under the same terms, next, `COc1ccccc1-c1nc2cc(CC(=O)Nc3snc(C)c3Cl)ccc2o1` [305(A3)]: 16.

Still in this series, the particulars now being: 1 d Prot/Foir; METHOD 2 (unbanded).
`CCC(Cl)c1nc2cc(CC(=O)Nc3snc(C)c3Cl)ccc2o1` (racemic) [95(A3)]: the “ERYSGT 1 d Prot/Foir PRCO” value was found to be 68.
Same read-out and setting: next, `Cc1nsc(NC(=O)Cc2ccc3oc(C(C)C#N)nc3c2)c1Cl` (racemic) [115(A3)]: −3; `Cc1nsc(NC(=O)Cc2ccc3oc(CSc4ccccc4)nc3c2)c1Cl` [173(A3)]: 16.
Still for that read-out and setting: under `Cc1nsc(NC(=O)Cc2ccc3oc(Cc4c(F)c(F)c(F)c(F)c4F)nc3c2)c1Cl` [239(A3)] stands 23; under `Cc1nsc(NC(=O)Cc2ccc3oc(-c4c(Cl)cc(C(F)(F)F)cc4Cl)nc3c2)c1Cl` [244(A3)], 3; under `Cc1nsc(NC(=O)Cc2ccc3oc(C(c4ccccc4)c4ccccc4)nc3c2)c1Cl` [246(A3)], 16.
For `Cc1nsc(NC(=O)Cc2ccc3oc(-c4ccccc4Cl)nc3c2)c1Cl` [253(A3)], the “ERYSGT 1 d Prot/Foir PRCO” value came to 94.
As for `COc1ccccc1-c1nc2cc(CC(=O)Nc3snc(C)c3Cl)ccc2o1` [305(A3)], the “ERYSGT 1 d Prot/Foir PRCO” value was determined as 16.
For the molecule `Cc1nsc(NC(=O)Cc2ccc3oc(-c4cccs4)nc3c2)c1Cl` [330(A3)], the “ERYSGT 1 d Prot/Foir PRCO” value was found to be 87.

Another series deals with Septoria nodorum. In words: Fungicidal test, Septoria nodorum (LEPTNO) on wheat, PRCO. To be noted: METHOD 2 (unbanded). In kind it is in vivo.
As to `CCC(Cl)c1nc2cc(CC(=O)Nc3snc(C)c3Cl)ccc2o1` (racemic) [95(A3)], the “LEPTNO 1 d Prot/Foir PRCO” value came out at 8.
The same measure, in the same setting: next, `Cc1nsc(NC(=O)Cc2ccc3oc(C(C)C#N)nc3c2)c1Cl` (racemic) [115(A3)]: 8; `Cc1nsc(NC(=O)Cc2ccc3oc(CSc4ccccc4)nc3c2)c1Cl` [173(A3)]: 2; `Cc1nsc(NC(=O)Cc2ccc3oc(-c4c(Cl)cc(C(F)(F)F)cc4Cl)nc3c2)c1Cl` [244(A3)]: −2.
On the same count and under the same terms, next, `Cc1nsc(NC(=O)Cc2ccc3oc(C(c4ccccc4)c4ccccc4)nc3c2)c1Cl` [246(A3)]: 27.
Still for that read-out and setting: under `Cc1nsc(NC(=O)Cc2ccc3oc(-c4ccccc4Cl)nc3c2)c1Cl` [253(A3)] stands 8; under `COc1ccccc1-c1nc2cc(CC(=O)Nc3snc(C)c3Cl)ccc2o1` [305(A3)], −2.
`Cc1nsc(NC(=O)Cc2ccc3oc(-c4cccs4)nc3c2)c1Cl` [330(A3)]: the “LEPTNO 1 d Prot/Foir PRCO” value is listed as 37.

These data come from patent US6544989B2, “Benzazoles: benzoxazole, benzthiazole and benzimidazole derivatives” (Syngenta Limited, priority 1998, dated 2003).
